Measurements from US5707966A, “Antithrombotic agents” (Eli Lilly and Company, priority 1995, dated 1998).
Counter-ions that a name gives are not always drawn. Like-named read-outs stand apart in the source and are kept apart here.

Experiments:
Type in all cases: biochemical
Human Thrombin = Human Thrombin (Homo sapiens, UniProt P00734); experiment: Inhibition of amidase activity of thrombin (Kass)
factor Xa = biological target: T1, factor Xa (Homo sapiens, UniProt P00742); experiment: Kass with factor Xa, chromogenic substrate; conditions: substrate N-Benzoyl-Ile-Glu-Gly-Arg-p-nitroanilide
T1 construct: Human factors X, Xa, IXa, XIa, and XIIa are purchased; purchased Enzyme Research Laboratories, South Bend, Ind
T1 sequence (P00742 235-488 limits assumed): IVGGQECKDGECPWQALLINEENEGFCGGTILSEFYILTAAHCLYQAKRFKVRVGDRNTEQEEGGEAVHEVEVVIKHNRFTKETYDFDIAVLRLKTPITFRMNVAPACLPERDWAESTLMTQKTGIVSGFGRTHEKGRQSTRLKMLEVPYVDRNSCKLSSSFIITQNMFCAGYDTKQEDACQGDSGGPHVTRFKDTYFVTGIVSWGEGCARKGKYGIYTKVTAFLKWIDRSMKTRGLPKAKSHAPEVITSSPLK
T1 sequence (P00742 41-179 partner limits assumed): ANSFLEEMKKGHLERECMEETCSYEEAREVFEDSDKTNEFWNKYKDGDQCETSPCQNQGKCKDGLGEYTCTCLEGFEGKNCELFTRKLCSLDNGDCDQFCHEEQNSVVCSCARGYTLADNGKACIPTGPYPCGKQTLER
Procedure: (§1) By substantially following the procedures described above for human thrombin, and using other human blood coagulation system serine proteases and proteases of the fibrinolytic system with the appropriate chromogenic substrates, identified below, selectivity of the compounds of the present invention with respect to the coagulation factor serine proteases and with respect to the fibrinolytic system serine proteases are evaluated as well as their substantial lack of interference with serine proteases of the fibrinolytic system. Thrombin inhibitors preferably should spare fibrinolysis induced by urokinase, tissue plasminogen activator (t-PA) and streptokinase. This would be important to the therapeutic use of such agents as an adjunct to streptokinase, t-PA or urokinase thrombolytic therapy and to the use of such agents as an endogenous fibrinolysis-sparing (with respect to t-PA and urokinase) antithrombotic agent. In addition to the lack of interference with the amidase activity of the fibrinolytic proteases, such fibrinolytic system sparing can be studied by the use of human plasma clots and their lysis by the respective fibrinolytic plasminogen activators.
(§2) Human factors X, Xa, IXa, XIa, and XIIa are purchased from Enzyme Research Laboratories, South Bend, Ind.; human urokinase from Leo Pharmaceuticals, Denmark; and recombinant activated Protein C (aPC) is prepared at Eli Lilly and Co. substantially according to U.S. Patent No. 4,981,952. Chromogenic substrates: N-Benzoyl-Ile-Glu-Gly-Arg-p-nitroanilide (for factor Xa); N-Cbz-D-Arg-Gly-Arg-p-nitroanilide (for factor IXa assay as the factor Xa substrate); Pyroglutamyl-Pro-Arg-p-nitroanilide (for Factor XIa and for aPC); H-D-Pro-Phe-Arg-p-nitroanilide (for factor XIIa); and Pyroglutamyl-Gly-Arg-p-nitroanilide (for urokinase); are purchased from KabiVitrum, Stockholm, Sweden, or from Midwest Biotech, Fishers, Ind. Bovine trypsin is purchased from Worthington Biochemicals, Freehold, N.J., and human plasma kallikrein from Kabi Vitrum, Stockholm, Sweden. Chromogenic substrate H-D-Pro-Phe-Arg-p-nitroanilide for plasma kallikrein is purchased from Kabi Vitrum, Stockholm, Sweden. N-Benzoyl-Phe-Val-Arg-p-nitroanilide, the substrate for human thrombin and for trypsin, is synthesized according to procedures described above for the compounds of the present invention, using known methods of peptide coupling from commercially available reactants or purchased from Midwest Biotech, Fishers, Ind.

Human plasma [1] = experiment: Human plasma anticoagulation, thrombin time (TT); conditions: concentration required to double the thrombin time, linear extrapolation
Procedure: (§3) Dog plasma and rat plasma is obtained from conscious mixed-breed hounds (either sex, Hazelton-LRE, Kalamazoo, Mich., U.S.A.) or from anesthetized male Sprague-Dawley rats (Harlan Sprague-Dawley, Inc., Indianapolis, Ind., U.S.A.) by venipuncture into 3.8 percent citrate. Fibrinogen is prepared from in-date ACD human blood as the fraction I-2 according to previous procedures and specifications. […] Human fibrinogen is also purchased as 98 percent pure/plasmin free from American Diagnostica, Greenwich, Conn. Coagulation reagents ACTIN, Thromboplastin, and Human plasma are from Baxter Healthcare Corp., Dade Division, Miami, Fla. Bovine thrombin from Parke-Davis ([…], Mich.) is used for coagulation assays in plasma.
(§4) Coagulation assay procedures are as previously described. […] A CoAScreener coagulation instrument (American LABor, Inc.) is used for all coagulation assay measurements. The prothrombin time (PT) is measured by adding 0.05 mL saline and 0.05 mL Thromboplastin-C reagent to 0.05 mL test plasma. The activated partial thromboplastin time (APTT) is measured by incubation of 0.05 mL test plasma with 0.05 mL Actin reagent for 120 seconds followed by 0.05 mL CaCl2 (0.02M). The thrombin time (TT) is measured by adding 0.05 mL saline and 0.05 mL thrombin (10 NIH units/mL) to 0.05 mL test plasma. The compounds of Formula I are added to human or animal plasma over a wide range of concentrations to determine prolongation effects on the APTT, PT, and TT assays. Linear extrapolations are performed to estimate the concentrations required to double the clotting time for each assay.

Human plasma [2] = experiment: Human plasma anticoagulation, activated partial thromboplastin time (APTT); conditions: concentration required to double the APTT, linear extrapolation
Procedure: as §3, §4

Human plasma [3] = experiment: Human plasma anticoagulation, prothrombin time (PT); conditions: concentration required to double the PT, linear extrapolation
Procedure: as §3, §4

Bovine trypsin = biological target: T2, Bovine trypsin (Bos taurus, UniProt P00760); experiment: Kass with trypsin, chromogenic substrate; conditions: substrate N-Benzoyl-Phe-Val-Arg-p-nitroanilide
T2 construct: Bovine trypsin is purchased; purchased Worthington Biochemicals, Freehold, N.J
T2 sequence (P00760 24-246): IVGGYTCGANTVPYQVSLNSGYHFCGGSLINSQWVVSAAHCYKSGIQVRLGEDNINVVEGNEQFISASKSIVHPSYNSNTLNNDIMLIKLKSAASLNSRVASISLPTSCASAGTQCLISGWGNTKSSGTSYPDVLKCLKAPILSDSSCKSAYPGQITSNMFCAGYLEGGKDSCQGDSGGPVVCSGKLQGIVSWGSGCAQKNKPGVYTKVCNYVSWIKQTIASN
Procedure: as §1, §2

[4] = mean over a range of concentrations, […]

| Molecule | Kass Human Thrombin (Human Thrombin; [4]) | Kass Xa (factor Xa) | Kass Trypsin (Bovine trypsin) | Human Plasma Anticoagulation 2× Clotting time TT (Human plasma [1]) [ng/mL] | Human Plasma Anticoagulation 2× Clotting time APTT (Human plasma [2]) | Human Plasma Anticoagulation 2× Clotting time PT (Human plasma [3]) | Kass Human Thrombin (Human Thrombin) |
| --- | --- | --- | --- | --- | --- | --- | --- |
| Nc1ccc(CNC(=O)[C@@H]2CCCN2C(=O)[C@@H](CC2CCCCC2)NCC(=O)O)c(F)c1 [Example 64, HO2 CCH2 -D-Cha-Pro-4-NHCH2 -3-F-C6 H3 NH2.HCl] | 15 × 10^6 (L/mole) | 0.01 × 10^6 (L/mole) | – | 23 | 900 ng/mL | 650 ng/mL | – |
| NCc1ccc(CNC(=O)[C@@H]2CCCN2C(=O)[C@@H](CC2CCCCC2)NCC(=O)O)cc1 [Example 78, HO2 CCH2 -D-Cha-pro-4-NHCH2 C6 H4 CH2 NH2.HCl] | – | – | 8.6 × 10^6 (L/mole) | 46 | 430 ng/mL | 760 ng/mL | 11 |
| NCC1CCC(CNC(=O)[C@@H]2CCCN2C(=O)[C@@H](CC2CCCCC2)NCC(=O)O)CC1 (stereo partly drawn) [Example 79, HO2 CCH2 -D-Cha-Pro-4-NHCH2 C6 H10 CH2 NH2.HCl] | 2.0 × 10^6 (L/mole) | – | 0.24 × 10^6 (L/mole) | 140 | 1,700 ng/mL | 2,400 ng/mL | – |
| CCS(=O)(=O)N[C@H](CC1CCCCC1)C(=O)N1CCC[C@H]1C(=O)NCc1ccc(C(=N)N)cc1.Cl [Example 80, EtSO2 -D-Cha-Pro-4-NHCH2 C6 H4 C(NH)NH2.HCl] | 1,700 × 10^6 (L/mole) | – | 90 × 10^6 (L/mole) | 4 | 40 ng/mL | 130 ng/mL | – |
| CCS(=O)(=O)N[C@H](CC1CCCCC1)C(=O)N1CCC[C@H]1C(=O)NCc1ccc(CN)cc1 [Example 81, EtSO2 -D-Cha-Pro-4-NHCH2 C6 H4 CH2 NH2.HCl] | 5.3 × 10^6 (L/mole) | – | 2.1 × 10^6 (L/mole) | 110 | 1,500 ng/mL | 2,700 ng/mL | – |
| CCS(=O)(=O)N[C@H](CC1CCCCC1)C(=O)N1CCC[C@H]1C(=O)NCc1ccnc(N)c1 [Example 83, EtSO2 -D-Cha-Pro-4-NHCH2 -2-aminopyridine.HCl] | 2.4 × 10^6 (L/mole) | – | 0.03 × 10^6 (L/mole) | 91 | 1,000 ng/mL | 1,300 ng/mL | – |
| CCS(=O)(=O)N[C@H](CC1CCCCC1)C(=O)N1CCC[C@H]1C(=O)NCc1ccc(N)nc1 [Example 84, EtSO2 -D-Cha-Pro-5-NHCH2 -2-aminopyridine.HCl] | 2.9 × 10^6 (L/mole) | – | 0.07 × 10^6 (L/mole) | 110 | 1,500 ng/mL | 1,900 ng/mL | – |
| N=C(N)c1ccc(CNC(=O)[C@@H]2CCCN2C(=O)[C@@H](CC2CCCCC2)NCCCC(=O)O)cc1 [Example 85, HOOCCH2 CH2 CH2 -D-Cha-pro-p-NHCH2 C6 H4 C(NH)NH2.HCl] | 265 × 10^6 (L/mole) | – | 30.8 × 10^6 (L/mole) | 4.9 | 100 ng/mL | 197 ng/mL | – |
| N=C(N)c1ccc(CNC(=O)[C@@H]2CCCN2C(=O)[C@H](NCC(=O)O)C2CCCCC2)cc1 [Example 86, HOOCCH2 -D-Chg-Pro-p-NHCH2 C6 H4 C(NH)NH2.HCl] | – | 0.63 × 10^6 (L/mole) | – | 4 | 81 ng/mL | 180 ng/mL | 200 |
| HOOCCH2 -D-hPhe-Pro-p-NHCH2 C6 H4 C(NH)NH2.HCl [Example 87] | 30 × 10^6 (L/mole) | 2.5 × 10^6 (L/mole) | – | 9 | 260 ng/mL | 310 ng/mL | – |

Further lines, with some results ahead:

| Kass Human Thrombin (Human Thrombin; [4]) | Kass Xa (factor Xa) | Kass Trypsin (Bovine trypsin) | Molecule | Human Plasma Anticoagulation 2× Clotting time TT (Human plasma [1]) [ng/mL] | Human Plasma Anticoagulation 2× Clotting time APTT (Human plasma [2]) | Human Plasma Anticoagulation 2× Clotting time PT (Human plasma [3]) | Kass Human Thrombin (Human Thrombin) |
| --- | --- | --- | --- | --- | --- | --- | --- |
| 410 × 10^6 (L/mole) | 3.9 × 10^6 (L/mole) | – | N=C(N)c1ccc(CNC(=O)[C@@H]2CCCN2C(=O)[C@@H](CCC2CCCCC2)NCC(=O)O)cc1 [Example 88, HOOCCH2 -D-hCha-Pro-p-NHCH2 C6 H4 C(NH)NH2.HCl] | 4 | 100 ng/mL | 200 ng/mL | – |
| 0.14 × 10^6 (L/mole) | 0.071 × 10^6 (L/mole) | – | N=C(N)c1ccc(CNC(=O)CN(CCc2ccccc2)C(=O)CNCC(=O)O)cc1 [Example 89, HOOCCH2 -Gly-N-C6 H5 CH2 CH2 Gly-p-NHCH2 C6 H4 C(NH)NH2.HCl] | 570 | 51,000 ng/mL | 37,000 ng/mL | – |
| 0.61 × 10^6 (L/mole) | 0.002 × 10^6 (L/mole) | – | CCC(CC)C(=O)N[C@@H](CCC(=O)O)C(=O)N1CCC[C@H]1C(=O)NCc1ccc(C(=N)N)cc1 [Example 90, (C2 H5)2 CHCO-Glu-Pro-p-NHCH2 C6 H4 C(NH)NH2.HCl] | 330 | 14,500 ng/mL | 14,600 ng/mL | – |
| 3.6 × 10^6 (L/mole) | 0.007 × 10^6 (L/mole) | – | CCC(CC)C(=O)N[C@@H](CCS(C)(=O)=O)C(=O)N1CCC[C@H]1C(=O)NCc1ccc(C(=N)N)cc1 [Example 91, (C2 H5)2 CHCO-Met(O2)-pro-p-NHCH2 C6 H4 C(NH)NH2.HCl] | 63 | 3,000 ng/mL | 3,500 ng/mL | – |
| 130 × 10^6 (L/mole) | – | 7.7 × 10^6 (L/mole) | CS(=O)(=O)CC(=O)N[C@H](CC1CCCCC1)C(=O)N1CCC[C@H]1C(=O)NCc1ccc(C(=N)N)cc1 [Example 92, MeSO2 CH2 CO-D-Cha-Pro-p-NHCH2 C6 H4 C(NH)NH2.HCl] | 8.9 | 210 ng/mL | 340 ng/mL | – |
